How the values were obtained:
[1] = system: mice pain response induced by hot plate; test: Mice pain response induced by hot plate; assay type: in vivo, ICR mice; conditions: for pain thresholds of the thermal-stimulus mice, in words: compared with the model group; for Pain threshold: hot plate 55°C
Procedure: Female ICR mice (20±2) g were placed on an intelligent hot plate at 55±0.5° C., and latency (s) that the plantar of mice touched the hot plate until the occurrence of a hind paws licking response served as a pain threshold indicator; the mice (response latency <5 s or >30 s) or jumping mice were eliminated.
Grouping and administration were the same as those in Example 40.
The mice were continuously administered intragastrically for 7 consecutive days; the pain threshold of each group of mice was respectively determined once at 30, 60, 90 and 120 min after the final administration; the pain threshold greater than 60 s was calculated by 60 s.

[2] = system: reserpine-induced mice migraine; test: Reserpine-induced mice migraine; assay type: in vivo, ICR mice; conditions: for blood coagulation time, in words / level of 5-HT in the brain tissue, in words / times of the tail suspension activity, in words: compared with the model group; for Blood coagulation time: reserpine 0.2 mg/kg sc mice, 1 h after final administration; for brain tissue 5-HT / Times of tail suspension (struggling times within 2 min): reserpine mice; for Times of tail suspension (struggling times within 2 min): 9th day
Procedure: The mice in the blank control group and model group were administered intragastrically via a solvent from the 5th day after modeling, and the rest groups of mice were respectively administered corresponding medicaments and doses for intragastric administration for 10 consecutive days; 1 h later after the final administration, the mice were weighed; blood was taken at inner canthus to detect blood coagulation time; whole blood was taken, and cerebrum was taken on an ice and preserved at -20° C. for the subsequent experiment.
Behavioral test: tail suspension activity was performed; the position 1 cm away from the tail of the mice was glued by an adhesive tape on the 9th day of the test, and the adhesive tape was penetrated by a steel needle, and hung in a dark box such that the mice were hung upside down; then the mice struggling times (total number of overturning from hanging) within 2 min were observed.
The mice were weighed 1 h later after the final administration; blood of inner canthus was taken via a capillary to detect the blood coagulation time.
Blood was taken to detect the content of 5-HT in serum via high-performance liquid chromatography. Cerebrum was taken on an ice and precooled and cleaned slightly with 0.5% sodium carboxymethylcellulose, and then sucked dry with a filter paper, and placed into a cryogenic tube, and preserved at -20° C. for further use, then the content of 5-HT in brain tissues was detected by high performance liquid chromatography.
5-HT test method: a sample was precipitated with 10% perchloric acid solution according to 1:1, and then centrifuged to take supernatant for test. Chromatographic conditions: the chromatographic column is a SHIMADZU VP-ODS C18 column (250*4.6 mm, 5 um), the mobile phase is a methanol-0.01 mol/L potassium acetate buffer solution (10:90, V/V, PH is adjusted to 4.00 with 0.2 mol/L citric acid) for gradient elution; the column temperature is 25° C., flow rate is 1.00 ml/min and test wavelength is 275 nm.

ulcerative colitis mice = test: Mice ulcerative colitis (DSS); assay type: in vivo, BALB/c mice; conditions: for Total times of hematochezia within the four periods / Colon length / IL-1 content: DSS mice; for Colon length: four periods; for IL-1 content: serum, ELISA; for IL-1 content, in words / colon length, in words / total times of hematochezia, in words: compared with the model group
Text: Healthy male SPF-level BALB/c mice (8-week old and body mass: (20±2) g).
Modeling: the mice were randomly divided into […] at the end of the quarantine, 10 pieces for each group. The mice in the normal group drank normal water freely, and the rest groups of mice drank 1.0%-1.5% DSS solution freely for modeling, 7 d later after modeling, the mice in the modeling group drank normal water freely for 7 d, and 14 d served as a modeling period for four continuous periods, and the mice in the modeling group were administered at the same time.
End point of the experiment: experimental administration was performed for four periods, and dissection was performed on the 3rd and 4th day of the recovery period of the 4th period.
Test indicators: the mice were weighed twice a week after the beginning of the administration; diarrhea and hematochezia of the mice were observed, and times of hematochezia were recorded.
At the end of the experiment, the mice were dissected and weighed, and narcotized to take blood, then serum was preserved at -80° C. Spleen was taken and weighed to calculate the spleen index. The content of IL-1β in serum was detected via ELISA. Colorectum was cut and taken to measure the length of colorectum, then immobilized by formaldehyde and dyed by HE to detect the pathological change.

[3] = system: mice writhing caused by acetic acid; test: Mice writhing caused by acetic acid; conditions: for latent time, in words / mice writhing times caused by acetic acid, in words: compared with the model group; for Writhing times: 1 h before 0.7% acetic acid ip, within 20 min; for Latent time: time to first writhing; for Inhibition ratio: writhing inhibition
Procedure: Each compound was prepared into a suspension by 0.5% sodium carboxymethylcellulose respectively, and then set according to the dose, and each administration group was administered intragastrically; the model group was administered intragastrically an equal volume of 0.5% sodium carboxymethylcellulose.
Mice were intraperitoneally injected with acetic acid to cause a large area and more lasting painful stimuli in deep enterocoelia, causing mice to produce writhing responses. After being administered for 1 h, each dose group was intraperitoneally injected with 0.7% acetic acid-normal saline solution (0.1 ml/10 g).
The time (pain latent time) that the mice started to appear writhing after being intraperitoneally injected with acetic acid was recorded.
The writhing response times of each mouse within 20 min were recorded after injecting acetic acid to cause pain, and then, the writhing inhibition ratio of each administration group was calculated.
Writhing inhibition ratio = [(writhing times of the control group -writhing times of the administration group)/writhing times of the control group] × 100%
Experimental data is shown by x±s and subjected to variance analysis by SPSS 15.0 software.

[4] = high dose 30 mg/kg ig 7 d, 30 min after final administration
[5] = high dose 30 mg/kg ig 7 d, 60 min
[6] = high dose 30 mg/kg ig 7 d, 90 min
[7] = high dose 30 mg/kg ig 7 d, 120 min
[8] = low dose 7.5 mg/kg ig 7 d, 30 min after final administration
[9] = low dose 7.5 mg/kg ig 7 d, 60 min
[10] = low dose 7.5 mg/kg ig 7 d, 90 min
[11] = low dose 7.5 mg/kg ig 7 d, 120 min
[12] = middle dose 15 mg/kg ig 7 d, 30 min after final administration
[13] = middle dose 15 mg/kg ig 7 d, 60 min
[14] = middle dose 15 mg/kg ig 7 d, 90 min
[15] = middle dose 15 mg/kg ig 7 d, 120 min

## O=C(Nc1cccc(Cl)c1)C1CCN(C(=O)c2cc3cc(F)ccc3[nH]2)CC1 [MAGLZ-II-18 (a)]
[1]
  pain thresholds of the thermal-stimulus mice, in words: significantly extend
[1]; [4]
  Pain threshold: 40.86 ± 7.17 s
[1]; [5]
  Pain threshold: 46.29 ± 5.27 s
[1]; [6]
  Pain threshold: 48.70 ± 5.73 s
[1]; [7]
  Pain threshold: 47.04 ± 5.54 s
[1]; [8]
  Pain threshold: 34.62 ± 6.65 s
[1]; [9]
  Pain threshold: 40.29 ± 6.73 s
[1]; [10]
  Pain threshold: 43.98 ± 6.55 s
[1]; [11]
  Pain threshold: 43.56 ± 6.01 s
[1]; [12]
  Pain threshold: 37.51 ± 6.07 s
[1]; [13]
  Pain threshold: 42.42 ± 5.90 s
[1]; [14]
  Pain threshold: 45.86 ± 7.09 s
[1]; [15]
  Pain threshold: 44.38 ± 5.44 s
[2]
  blood coagulation time, in words: significantly extend
  level of 5-HT in the brain tissue, in words: significantly increase
  times of the tail suspension activity, in words: significantly increase
[2]; high dose 30 mg/kg ig 10 d
  Blood coagulation time: 252.25±30.99 S
  brain tissue 5-HT: 2.76 ± 0.34 nmol/g
[2]; low dose 7.5 mg/kg ig 10 d
  Blood coagulation time: 137.25±67.22 S
  brain tissue 5-HT: 1.21 ± 0.17 nmol/g
[2]; middle dose 15 mg/kg ig 10 d
  Blood coagulation time: 191.50±63.66 S
  brain tissue 5-HT: 1.65 ± 0.18 nmol/g
[2]; high dose 30 mg/kg ig
  Times of tail suspension (struggling times within 2 min): 18.50±2.00
[2]; low dose 7.5 mg/kg ig
  Times of tail suspension (struggling times within 2 min): 11.38±2.67
[2]; middle dose 15 mg/kg ig
  Times of tail suspension (struggling times within 2 min): 13.38±2.67
Ulcerative colitis mice; high dose 30 mg/kg ig
  Total times of hematochezia within the four periods: 27.90±7.28
  Colon length: 7.72±0.92 cm
  IL-1 content: 36.22 ± 4.31 pg/mL
Ulcerative colitis mice; low dose 7.5 mg/kg ig
  Total times of hematochezia within the four periods: 33.60±5.83
  Colon length: 6.51±0.90 cm
  IL-1 content: 47.32 ± 9.06 pg/mL
Ulcerative colitis mice; middle dose 15 mg/kg ig
  Total times of hematochezia within the four periods: 29.90±8.95
  Colon length: 7.06±1.20 cm
  IL-1 content: 43.77 ± 10.69 pg/mL
Ulcerative colitis mice
  IL-1 content, in words: decrease
  colon length, in words: significantly increase
  total times of hematochezia, in words: reduce
[3]
  latent time, in words: extend
  mice writhing times caused by acetic acid, in words: significantly decrease
[3]; high dose 30 mg/kg ig
  Writhing times: 17.8±11.1
  Latent time: 422.4 ± 137.9 s
  Inhibition ratio: 54.7%
[3]; low dose 7.5 mg/kg ig
  Writhing times: 24.2±8.5
  Latent time: 355.5 ± 136.5 s
  Inhibition ratio: 38.4%
[3]; middle dose 15 mg/kg ig
  Writhing times: 20.8±12.5
  Latent time: 380.7 ± 130.7 s
  Inhibition ratio: 47.1%

## Cn1c(C(=O)N2CCC(C(=O)Nc3cccc(Cl)c3)CC2)cc2ccccc21 [MAGLZ-II-18 (c)]
[1]
  pain thresholds of the thermal-stimulus mice, in words: significantly extend
[1]; [4]
  Pain threshold: 29.23 ± 7.95 s
[1]; [5]
  Pain threshold: 30.24 ± 7.80 s
[1]; [6]
  Pain threshold: 30.66 ± 8.35 s
[1]; [7]
  Pain threshold: 29.87 ± 7.43 s
[1]; [8]
  Pain threshold: 23.98 ± 6.89 s
[1]; [9]
  Pain threshold: 24.75 ± 6.91 s
[1]; [10]
  Pain threshold: 25.16 ± 8.87 s
[1]; [11]
  Pain threshold: 24.28 ± 7.17 s
[1]; [12]
  Pain threshold: 26.82 ± 7.99 s
[1]; [13]
  Pain threshold: 28.52 ± 6.18 s
[1]; [14]
  Pain threshold: 28.66 ± 8.73 s
[1]; [15]
  Pain threshold: 27.88 ± 7.74 s
[2]
  blood coagulation time, in words: significantly extend
  level of 5-HT in the brain tissue, in words: significantly increase
  times of the tail suspension activity, in words: significantly increase
[2]; high dose 30 mg/kg ig 10 d
  Blood coagulation time: 237.13±28.75 S
  brain tissue 5-HT: 1.79 ± 0.32 nmol/g
[2]; low dose 7.5 mg/kg ig 10 d
  Blood coagulation time: 148.00±30.23 S
  brain tissue 5-HT: 1.14 ± 0.22 nmol/g
[2]; middle dose 15 mg/kg ig 10 d
  Blood coagulation time: 198.63±21.36 S
  brain tissue 5-HT: 1.37 ± 0.34 nmol/g
[2]; high dose 30 mg/kg ig
  Times of tail suspension (struggling times within 2 min): 15.88±3.8
[2]; low dose 7.5 mg/kg ig
  Times of tail suspension (struggling times within 2 min): 10.13±2.3
[2]; middle dose 15 mg/kg ig
  Times of tail suspension (struggling times within 2 min): 12.75±2.6
Ulcerative colitis mice; high dose 30 mg/kg ig
  Total times of hematochezia within the four periods: 31.80±6.6
  Colon length: 6.65±0.67 cm
  IL-1 content: 45.10 ± 8.88 pg/mL
Ulcerative colitis mice; low dose 7.5 mg/kg ig
  Total times of hematochezia within the four periods: 43.10±7.59
  Colon length: 6.25±1.17 cm
  IL-1 content: 48.08 ± 13.18 pg/mL
Ulcerative colitis mice; middle dose 15 mg/kg ig
  Total times of hematochezia within the four periods: 43.20±5.31
  Colon length: 6.47±0.71 cm
  IL-1 content: 44.09 ± 9.13 pg/mL
Ulcerative colitis mice
  IL-1 content, in words: decrease
  colon length, in words: significantly increase
  total times of hematochezia, in words: reduce
[3]
  latent time, in words: extend
  mice writhing times caused by acetic acid, in words: significantly decrease
[3]; high dose 30 mg/kg ig
  Writhing times: 19.9±12.2
  Latent time: 373.6 ± 114.0 s
  Inhibition ratio: 49.4%
[3]; low dose 7.5 mg/kg ig
  Writhing times: 28.3±11.9
  Latent time: 263.5 ± 77.7 s
  Inhibition ratio: 28.0%
[3]; middle dose 15 mg/kg ig
  Writhing times: 24.9±12.2
  Latent time: 312.7 ± 90.9 s
  Inhibition ratio: 36.6%

Source: patent publication US20230090255A1, “MAGL INHIBITOR, PREPARATION METHOD THEREFOR AND USE THEREOF” (LUNAN PHARMACEUTICAL GROUP CORPORATION, priority 2019, published 2023)
